From ChEMBL document CHEMBL5329205, “Development of novel quinoline-NO donor hybrids inducing human breast cancer cells apoptosis via inhibition of topoisomerase I” (Bioorg Med Chem, 2023)
Calls of active or inactive are those of the source. The calls are words filed in the database; no cut-off is given here.

Columns and labels:
MCF7 [1] = assay: Induction of apoptosis in human MCF7 cells assessed as early apoptotic cells at 1.5 uM incubated for 48 hrs by Annexin-V/PI staining based flow cytometry analysis (reference value: 0.3%); type: functional
MCF7 [2] = assay: Induction of cell cycle arrest in human MCF7 cells assessed as S phase cells at 1.5 uM incubated for 24 hrs by PI/RNaseA staining based flow cytometry analysis (reference value: 22.2 %); type: functional
[3] = Toxicity in BALB/c mouse xenografted with human MCF7 cells assessed as liver damage at 10 mg/kg, ip administered once every two days for 3 weeks by H and E staining based microscopic analysis; type: organism-based; settings: in vivo, 504 h
MCF7 [4] = assay: Induction of apoptosis in human MCF7 cells assessed as early apoptotic cells at 3 uM incubated for 48 hrs by Annexin-V/PI staining based flow cytometry analysis (reference value: 0.3%); type: functional
[5] = Toxicity in BALB/c mouse xenografted with human MCF7 cells assessed as liver damage at 5 mg/kg, ip administered once every two days for 3 weeks by H and E staining based microscopic analysis; type: organism-based; settings: in vivo, 504 h
[6] = target: T1, DNA topoisomerase 1 (Homo sapiens) (UniProt P11387); assay: Inhibition of human DNA topoisomerase I mediated supercoiled DNA relaxation activity incubated for 30 mins by Ged Red staining based agarose gel electrophoresis analysis; settings: dose 20-100 µM
T1 sequence (whole entry): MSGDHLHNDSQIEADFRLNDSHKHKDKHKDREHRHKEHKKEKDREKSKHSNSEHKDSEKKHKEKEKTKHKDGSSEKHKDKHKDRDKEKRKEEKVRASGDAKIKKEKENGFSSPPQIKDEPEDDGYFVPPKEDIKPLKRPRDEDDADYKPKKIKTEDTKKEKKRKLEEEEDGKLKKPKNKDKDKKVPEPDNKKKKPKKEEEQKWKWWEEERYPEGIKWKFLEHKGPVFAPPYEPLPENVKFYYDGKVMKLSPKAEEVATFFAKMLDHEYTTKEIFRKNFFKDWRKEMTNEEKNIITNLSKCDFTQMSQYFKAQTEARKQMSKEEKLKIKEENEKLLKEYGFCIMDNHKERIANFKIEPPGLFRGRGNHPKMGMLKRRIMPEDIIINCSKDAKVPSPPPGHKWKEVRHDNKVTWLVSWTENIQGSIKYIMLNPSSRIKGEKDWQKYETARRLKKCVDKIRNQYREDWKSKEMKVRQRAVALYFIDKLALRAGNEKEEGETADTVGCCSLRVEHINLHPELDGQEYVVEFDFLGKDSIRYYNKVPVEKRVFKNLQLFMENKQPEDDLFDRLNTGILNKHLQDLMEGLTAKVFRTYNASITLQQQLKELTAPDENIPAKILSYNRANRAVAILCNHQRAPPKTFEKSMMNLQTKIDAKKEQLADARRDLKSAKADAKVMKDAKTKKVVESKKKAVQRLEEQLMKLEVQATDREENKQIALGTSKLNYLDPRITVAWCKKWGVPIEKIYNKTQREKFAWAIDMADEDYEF

MCF7 [7] = assay: Antitumor activity against human MCF7 cells xenografted in BALB/c nude mouse assessed as reduction in tumor weight at 10 mg/kg, ip administered once every two days for 3 weeks relative to control; type: functional; parameters: scale not given: the % may be the effect or the level left
MCF7 [8] = assay: Induction of apoptosis in human MCF7 cells assessed as viable cells at 3 uM incubated for 48 hrs by Annexin-V/PI staining based flow cytometry analysis (reference value: 99.7%); type: functional; settings: read-out: Activity
HCT-116 = assay: Antiproliferative activity against human HCT-116 cells assessed as inhibition of cell growth incubated for 48 hrs by MTT assay; type: functional, cell-based; settings: HCT-116, 48 h
MCF7 [9] = assay: Induction of apoptosis in human MCF7 cells assessed as viable cells at 0.75 uM incubated for 48 hrs by Annexin-V/PI staining based flow cytometry analysis (reference value: 99.7%); type: functional; settings: read-out: Activity
[10] = Toxicity in BALB/c mouse xenografted with human MCF7 cells assessed as spleen damage at 5 mg/kg, ip administered once every two days for 3 weeks by H and E staining based microscopic analysis; type: organism-based; settings: in vivo, 504 h
MCF7 [11] = assay: Induction of cell cycle arrest in human MCF7 cells assessed as G1 phase cells at 0.75 uM incubated for 24 hrs by PI/RNaseA staining based flow cytometry analysis (reference value: 66.08 %); type: functional
[12] = Cytotoxicity against human MCF-10A cells assessed as cell growth inhibition measured after 48 hrs by MTT assay; type: toxicity, cell-based
MCF7 [13] = assay: Induction of apoptosis in human MCF7 cells assessed as necrotic cells at 3 uM incubated for 48 hrs by Annexin-V/PI staining based flow cytometry analysis (reference value: 0.0%); type: functional
MCF7 [14] = assay: Induction of apoptosis in human MCF7 cells assessed as late apoptotic cells at 1.5 uM incubated for 48 hrs by Annexin-V/PI staining based flow cytometry analysis (reference value: 0.0%); type: functional
[15] = Toxicity in BALB/c mouse xenografted with human MCF7 cells assessed as spleen damage at 10 mg/kg, ip administered once every two days for 3 weeks by H and E staining based microscopic analysis; type: organism-based; settings: in vivo, 504 h
MCF7 [16] = assay: Induction of cell cycle arrest in human MCF7 cells assessed as G2 phase cells at 1.5 uM incubated for 24 hrs by PI/RNaseA staining based flow cytometry analysis (reference value: 7.67 %); type: functional
NCI/ADR-RES = assay: Antiproliferative activity against human MCF7ADR cells assessed as inhibition of cell growth measured after 48 hrs by MTT assay; type: functional, cell-based
MCF7 [17] = assay: Induction of cell cycle arrest in human MCF7 cells assessed as S phase cells at 0.75 uM incubated for 24 hrs by PI/RNaseA staining based flow cytometry analysis (reference value: 22.2 %); type: functional
MCF7 [18] = assay: Induction of cell cycle arrest in human MCF7 cells assessed as G1 phase cells at 3 uM incubated for 24 hrs by PI/RNaseA staining based flow cytometry analysis (reference value: 66.08 %); type: functional
MCF7 [19] = assay: Antitumor activity against human MCF7 cells xenografted in BALB/c nude mouse assessed as reduction in tumor volume at 5 mg/kg, ip administered once every two days for 3 weeks; type: functional, organism-based
MCF7 [20] = assay: Induction of apoptosis in human MCF7 cells assessed as upregulation of cleaved-PARP expression incubated for 24 hrs by Western blot analysis; type: functional, cell-based; settings: dose 1-4 µM
MCF7 [21] = assay: Induction of apoptosis in human MCF7 cells assessed as late apoptotic cells at 0.75 uM incubated for 48 hrs by Annexin-V/PI staining based flow cytometry analysis (reference value: 0.0%); type: functional
MCF7 [22] = assay: Induction of apoptosis in human MCF7 cells assessed as bright blue appearance of cells upto 3 uM incubated for 48 hrs by Hoechst-33342 staining based fluorescent microscopic analysis; type: functional, cell-based
[23] = Toxicity in BALB/c mouse xenografted with human MCF7 cells assessed as lung damage at 10 mg/kg, ip administered once every two days for 3 weeks by H and E staining based microscopic analysis; type: organism-based; settings: in vivo, 504 h
MCF7 [24] = assay: Induction of apoptosis in human MCF7 cells assessed as upregulation of cleaved caspase-3 expression incubated for 24 hrs by Western blot analysis; type: functional, cell-based; settings: dose 1-4 µM
[25] = Toxicity in BALB/c mouse xenografted with human MCF7 cells assessed as kidney damage at 10 mg/kg, ip administered once every two days for 3 weeks by H and E staining based microscopic analysis; type: organism-based; settings: in vivo, 504 h

SMILES: COc1cc(-c2cc(C(=O)OCCCCCOc3no[n+]([O-])c3S(=O)(=O)c3ccccc3)c3ccccc3n2)cc(OC)c1OC
- Activity (MCF7 [1]): 13.2%
- Activity (MCF7 [2]): 20.71%
- Activity [3]: Non-Toxic
- Activity (MCF7 [4]): 14.3%
- Activity [5]: Non-Toxic
- inhibition [6]: Dose-Dependent Effect
- Activity (MCF7 [7]): 66.79%
- viability at 3 µM (MCF7 [8]): 34.4%
- IC50 (HCT-116): 2.48 µM
- viability at 0.75 µM (MCF7 [9]): 67.1%
- Activity [10]: Non-Toxic
- Activity (MCF7 [11]): 65.47%
- IC50 at 48 h [12]: 26.9 µM
- Activity (MCF7 [13]): 1.2%
- Activity (MCF7 [14]): 18.1%
- Activity [15]: Non-Toxic
- Activity (MCF7 [16]): 19.12%
- IC50 (NCI/ADR-RES): 0.62 µM
- Activity (MCF7 [17]): 22.08%
- Activity (MCF7 [18]): 58.98%
- Activity (MCF7 [19]): Active
- Activity (MCF7 [20]): Dose-Dependent Effect
- Activity (MCF7 [21]): 18%
- Activity (MCF7 [22]): Active
- Activity [23]: Non-Toxic
- Activity (MCF7 [24]): Dose-Dependent Effect
- Activity [25]: Non-Toxic
